Measurements: article PMC6881253, “The PCNA interaction motifs revisited: thinking outside the PIP-box” (Cellular and Molecular Life Sciences: CMLS, 2019)
Like-named read-outs stand apart in the source and are kept apart here. Ends that are not written are not given here.

Columns and labels:
human PCNA [1] = molecular target: T1, human PCNA (Homo sapiens, UniProt P12004); test: SPR binding of peptides to His6-tagged PCNA captured by anti-His6 antibody; details: for Kd: Table S2, SPR, pH 7.5, T 298, This work
Description: A stock of > 100 µM PCNA in purification buffer was diluted to the working concentration of 200 nM in 10 mM NaH2PO4, 500 mM NaCl, pH 7.0, 1 mM β-mercaptoethanol. The peptides were dissolved in SPR running buffer (i.e., 10 mM HEPES, 150 mM NaCl, 0.05% (v/v) P20, pH 7.4).
Binding analyses were recorded on a Biacore T200™ instrument (GE Healthcare Life Sciences). A single cycle protocol setup was used for the injection of ligands in flow cells with PCNA captured by an anti-His antibody covalently coupled to a CM5 chip (GE Healthcare Life Sciences, Cat# BR100530). […] Remaining activated NHS-esters were blocked by injecting 35 µL 1 M ethanolamine, pH 8.5. All procedures were conducted at a flow rate of 5 µL min^−1. […] The control surface was not exposed to PCNA. […] The injection cycles alternated between injections cycles of buffer and peptide with no intervening regeneration. […] For the UNG2, APIM, and FEN1 measurements, a final injection cycle of p21 with a final concentration of 50 nM was run as a control of consistency. Complete regeneration of the flow cells between each single-cycle run was accomplished by injecting 10 mM glycine–HCl, pH 1.5 for 60 s with a flow rate of 30 µL min^−1. All measurements were carried out at 25 °C.
Fitting of the data by non-linear regression to a bimolecular interaction model, assuming pseudo-first order reaction condition yielded the association (kon) and dissociation (koff) rate constants. […] For runs with different capture levels of PCNA for each injection cycle, the responses were normalized to a common Rmax value. We used the evaluation software supplied with the instrument for global fitting (BiacoreT200 Evaluation 3.0).

human PCNA [2] = molecular target: T1, human PCNA; test: ITC, PCNA injected into peptide; format: binding
Description: PCNA was buffer exchanged and concentrated using a 10000 MWCO filter (millipore) against the ITC buffer (10 mM HEPES, 150 mM NaCl, 1 mM EDTA, 1 mM TCEP, pH 7.4) for all experiments. The lyophilized peptides were dissolved in the ITC buffer at concentrations between 0.2 and 1 mM determined using A280. For all experiments, PCNA was injected into peptide. For p21^143–157 the peptide concentration was 10 µM, and the PCNA trimer concentration 40 µM. […] For experiments with S2, S1, and D1.2, the peptide concentrations were 20 µM, 60 µM, and 50 µM, respectively, and the PCNA trimer concentration 100 µM, 200 µM, and 269 µM, respectively. All buffer, protein, and peptide solutions were properly degassed prior to loading. ITC was performed with the microCal instrument ITC200 (Malvern). Data were recorded at 25 °C with a stirring speed of 307 rpm and a reference power of 10 µCal s^−1. The heat of dilution was determined from the final injections after saturation of the complex and was subtracted from the data for all peptides except S1 and D1.2 where saturation was not reached. Data from the ITC experiments were analyzed using the Origin 7 software package (MicroCal™). The data were fitted to a single binding site model.
All experiments were carried out in triplicates. […] In the case of the D1.2 peptide, the stoichiometry was kept constant at three peptides per PCNA molecule to achieve convergence in the fitting procedure.

PCNA [3] = molecular target: PCNA; parameters: method as in 4 sources, one per row (each row's own in cited_ref): ref PMID 19208623 ||| ref PMID 8876181 ||| ref PMID 24728180 ||| ref PMID 10899134; details: SPR, cited from earlier work
PCNA [4] = details: cited from earlier work
Description: Supplement 18_2019_3150_MOESM1_ESM.docx, table 2: Table S2: Binding affinities of curated PCNA binding proteins. | column: KD (M)

PCNA [5] = molecular target: PCNA; parameters: method as in 11 sources, ref PMID 15576034 ||| ref PMID 10858286 ||| ref PMID 23139781 ||| ref PMID 30655288 ||| ref PMID 28621305 ||| ...; details: ITC, cited from earlier work
[6] = SPR single-cycle kinetics, bimolecular model, 10 mM HEPES, 150 mM NaCl, 0.05% P20, pH 7.4, 25 °C
[7] = pH 7.5, T 298, ref PMID 19208623
[8] = pH 7.5, T 303, ref PMID 15576034
[9] = pH 7.5, T 279, ref PMID 23677613

T1 sequence (P12004 whole entry): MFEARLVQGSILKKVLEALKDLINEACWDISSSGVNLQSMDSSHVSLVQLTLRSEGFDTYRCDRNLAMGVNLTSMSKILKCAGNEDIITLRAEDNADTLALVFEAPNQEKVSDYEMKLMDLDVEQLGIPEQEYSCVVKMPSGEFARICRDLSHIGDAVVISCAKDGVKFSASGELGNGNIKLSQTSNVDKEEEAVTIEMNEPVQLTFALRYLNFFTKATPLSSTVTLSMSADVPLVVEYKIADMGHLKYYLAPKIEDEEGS

Q: With Ac-MDRWLVKW-NH2 [APIM] as the substance, how does the Kd (human PCNA [1]) read?
A: 10.9 µM

Q: For “Ac-RKRRATSMTDFYHSKRRL-NH2 [p21^140–157,Q144A]”, which “fold drop in the affinity for PCNA on mutating Q at the first position to alanine” value (human PCNA [2]; ITC) is on record?
A: 50 fold

Q: Which “fold change (increase) of affinity for PCNA on grafting p21 flanking regions to Fen1” value (human PCNA [2]; ITC, versus Fen1 peptide) does the source give for Ac-RKRRQGRLDDFFHSKRRL-NH2 here?
A: 60 fold

Q: Which Kd (human PCNA [1]) does the source give for Ac-RQSTLYSFFPKSPAL-NH2 [MSH6] here?
A: 2.61 µM

Q: Which koff (human PCNA [1]; [6]) does the source give for Ac-RQTSMTDFYHSKRRL-NH2 [p21] here?
A: 0.14 ± 0.0003 s⁻¹

Q: And the kon (human PCNA [1]; [6])?
A: 1.7e+06 ± 1e+10 M⁻¹ s⁻¹

Q: Which Kd (human PCNA [2]; 10 mM HEPES, 150 mM NaCl, 1 mM EDTA, 1 mM TCEP, pH 7.4, 25 °C, one set of sites, mean of triplicates) does the source give for Ac-SESSQTSMTDFYHSKRRL-NH2 [S1] here?
A: 8.3 ± 1.9 µM

Q: For Ac-TQGRLDDFFKVTGSL-NH2 [FEN1], which Kd (human PCNA [1]) is on record?
A: 44.9 µM

Q: Which Kd (PCNA [3]; [7]) does the source give for “CKRPRPEGMQTLESFFKPLTH [PolEta 694–713, literature DNA polymerase η peptide]” here?
A: 400 nM

Q: With “FTHFEKEKQHDIRSFFVPQPKK [ZRANB3 511–532, literature ZRANB3 PIP-box peptide]” as the substance, how does the Kd (PCNA [4]; method not given, pH 7.5, T 298, ref PMID 28621305) read?
A: 4.8 µM

Q: Which Kd (PCNA [5]; [8]) does the source give for “GKANRQVSITGFFQRK* [p66Polδ 451–466, literature peptide of DNA polymerase δ p66 subunit]” here?
A: 15.6 µM

Q: For “KDKFIRRWVHKEGFSG [FBH1 605-620, literature FBH1 peptide]”, which Kd (PCNA [5]; [9]) is on record?
A: 0.59 µM

Q: With “KQRVRVKTVPSLFQAKLD TFLWS [TRAIP 447–469, literature TRAIP peptide]” as the substance, how does the Kd (PCNA [5]; pH 7.4, T 298, ref PMID 26711499) read?
A: 30.7 µM

Q: Which Kd (PCNA [5]; pH 7, T 303, ref PMID 23139781) does the source give for “KRRQTSMTDFYH [p21 141–152, literature p21 peptide]” here?
A: 0.625 µM

Q: What about the Kd (PCNA [5]; pH 7, T 308, ref PMID 23139781) of the same substance?
A: 1.1 µM

Q: With “KTSPGRSVKEEAQNLIRHFFHGRARCES [RecQ5 952-979, literature RecQ5 peptide]” as the substance, how does the Kd (PCNA [5]; pH 7.0, T 308, ref PMID 30655288) read?
A: 210 µM

Q: For “MDRFLVKGAQGGLLRK [ABH2 1-16, literature ABH2 APIM peptide]”, which Kd (PCNA [5]; [9]) is on record?
A: 0.32 µM

Q: For MGRKRLITDSYPVVKRREG [p12 1-19], which Kd (PCNA [4]; NMR, pH 7.0, T 308, ref PMID 30655288) is on record?
A: 130 µM

Q: And the Kd (PCNA [5]; pH 7.0, T 298, ref PMID 30655288)?
A: 38 µM

Q: Which Kd (human PCNA [1]) does the source give for MIGQKTLYSFFTPSP [UNG2] here?
A: 34.1 µM

Q: Which Kd (PCNA [4]; NMR, pH 7, T 308, ref PMID 23139781) does the source give for “PANGEQLHLVNYVEDTLDSIES [ING1 4–25, literature ING1 peptide]” here?
A: 12500 µM

Q: For “PKWQKGIGEFFR [p15 59–70, literature p15(PAF) peptide]”, which Kd (PCNA [5]; pH 7, T 308, ref PMID 25762514) is on record?
A: 83 µM

Q: Which Kd (PCNA [5]; pH 7.4, T 298, ref PMID 26903512) does the source give for “PRPEGMQTLESFFKPLTH* [PolEta 696–713, literature DNA polymerase η peptide]” here?
A: 11 µM

Q: Which Kd (PCNA [5]; pH 7.4, T 298, ref PMID 28934471) does the source give for “QHGKKDSKITDHFMRLPKA [PARG 402–420, literature PARG peptide]” here?
A: 3.3 µM

Q: Which Kd (PCNA [5]; pH not given, T 298, ref PMID 28621305) does the source give for “QVRRQSLASKHGSDITRFLVKK [ZRANB3 1058–79, literature ZRANB3 APIM peptide]” here?
A: 9.2 µM

Q: For “RGQGSQRCIPEFFLAGKQPCTN [FBH1 52–72, literature FBH1 peptide]”, which Kd (PCNA [5]; [9]) is on record?
A: 0.25 µM

Q: Which Kd (PCNA [5]; [8]) does the source give for “RQGSTQGRLDDFFKVTGSLSSA [FEN1 332–353, literature FEN1 peptide]” here?
A: 59 µM

Q: For “SKSRQGSTQGRLDDFF [FEN1 329–344, literature FEN1 peptide]”, which Kd (PCNA [3]; pH 7.4, T not given, ref PMID 24728180) is on record?
A: 84.6 nM

Q: With “SQGRKRRQTSMTDFYHSKRR [p21 137–156, literature p21 peptide]” as the substance, how does the Kd (PCNA [3]; [7]) read?
A: 65 nM

Q: Which results are given for “p15 1–111: full-length p15(PAF) protein, literature”?
A: Kd (PCNA [5]; pH 7, T 298, ref PMID 25762514): 0.11 µM; Kd (PCNA [5]; pH 7, T 308, ref PMID 25762514): 2.5 µM
